Target: Escherichia coli DNA gyrase A/B tetramer (Escherichia coli (strain K12), UniProt P0AES4+P0AES6)
Assay: DNA gyrase supercoiling activity fluorescence polarisation assay
Type: biochemical
Details: 5 nM enzyme, relaxed plasmid, 0.3 mM ATP, ambient temperature; read-out: E. coli DNA gyrase supercoiling IC50
Description: DNA Gyrase Supercoiling Activity Fluorescence Polarisation Assay
The supercoiling reactions may be quenched by the addition of 10 microliters/well of 40 nM oligodeoxynucleotide probe in 3× triplex-forming buffer consisting of 150 mM NaCl, and 150 mM sodium acetate at pH 3.5. The oligodeoxynucleotide probe may be 5′-BODIPY-FL-labeled […]. After 60 minutes, the fluorescence anisotropy of the BODIPY-FL may be measured in a Tecan Ultra plate reader, using 485 nm excitation and 535 nm emission filters equipped with polarizers. The IC50 may be determined by nonlinear regression using two control reactions. The first contains no test compound but 0.8% DMSO (100% activity) while the second control reaction contains 5 μM Ciprofloxacin and 0.8% DMSO (0% activity).

Row | Compound | IC50 [nM]
1 | C[C@@H]1CN2c3c(cc4c(-n5ccnc5)noc4c3F)CC3(C(=O)NC(=O)NC3=O)[C@H]2[C@H](C)O1 (relative stereo) [Example 58, (2R,4S,4aS)-rel-11-fluoro-8-(1H-imidazol-1-yl)-2,4-dimethyl-1,2,4,4a-tetrahydro-2′H,6H-spiro[1,4-oxazino[4,3-a][1,2]oxazolo[4,5-g]quinoline-5,5′-pyrimidine]-2′,4′,6′(1′H,3′H)-trione] | 500
2 | C[C@@H]1CN2c3c(cc4c(-n5cnc(C(F)(F)F)c5)noc4c3F)CC3(C(=O)NC(=O)NC3=O)[C@H]2[C@H](C)O1 (relative stereo) [Example 59, (2R,4S,4aS)-rel-11-fluoro-2,4-dimethyl-8-[4-(trifluoromethyl)-1H-imidazol-1-yl]-1,2,4,4a-tetrahydro-2′H,6H-spiro[1,4-oxazino[4,3-a][1,2]oxazolo[4,5-g]quinoline-5,5′-pyrimidine]-2′,4′,6′(1′H,3′H)-trione] | 6600
3 | C[C@@H]1CN2c3c(cc4c(C(F)(F)F)noc4c3F)CC3(C(=O)NC(=O)NC3=O)[C@H]2[C@H](C)O1 (racemic) [Example 92, (2R,4 S,4 aS)-rel-11-fluoro-2,4-dimethyl-8-(trifluoromethyl)-2,4,4a,6-tetrahydro-1H,1′H-spiro[isoxazolo[4,5-g][1,4]oxazino[4,3-a]quinoline-5,5′-pyrimidine]-2′,4′,6′(3′H)-trione] | 1400
4 | Cc1cnn(-c2noc3c(F)c4c(cc23)CC2(C(=O)NC(=O)NC2=O)[C@H]2[C@H](C)O[C@H](C)CN42)c1 (relative stereo) [Example 60, (2R,4S,4aS)-rel-11-fluoro-2,4-dimethyl-8-(4-methyl-1H-pyrazol-1-yl)-1,2,4,4a-tetrahydro-2′H,6H-spiro[1,4-oxazino[4,3-a][1,2]oxazolo[4,5-g]quinoline-5,5′-pyrimidine]-2′,4′,6′(1′H,3′H)-trione] | 1200
5 | Cc1ncn(-c2noc3c(F)c4c(cc23)CC2(C(=O)NC(=O)NC2=O)[C@H]2[C@H](C)O[C@H](C)CN42)n1 (relative stereo) [Example 54, (2R,4S,4aS)-rel-11-fluoro-2,4-dimethyl-8-(3-methyl-1H-1,2,4-triazol-1-yl)-1,2,4,4a-tetrahydro-2′H,6H-spiro[1,4-oxazino[4,3-a][1,2]oxazolo[4,5-g]quinoline-5,5′-pyrimidine]-2′,4′,6′(1′H,3′H)-trione] | 2000
6 | C[C@@H]1CN2c3c(cc4c(-c5cnccn5)noc4c3F)CC3(C(=O)NC(=O)NC3=O)[C@H]2[C@H](C)O1 (relative stereo) [Example 165, (2R,4S,4aS)-rel-11-fluoro-2,4-dimethyl-8-(pyrazin-2-yl)-1,2,4,4a-tetrahydro-2′H,6H-spiro[1,4-oxazino[4,3-a][1,2]oxazolo[4,5-g]quinoline-5,5′-pyrimidine]-2′,4′,6′(1′H,3′H)-trione] | 400
7 | C[C@@H]1CN2c3c(cc4c(C(=O)NCC5CC5)noc4c3F)CC3(C(=O)NC(=O)NC3=O)[C@H]2[C@H](C)O1 (relative stereo) [Example 152, (2R,4S,4aS)-rel-N-(cyclopropylmethyl)-11-fluoro-2,4-dimethyl-2′,4′,6′-trioxo-2,2′,3′,4,4a,4′,6,6′-octahydro-1H,1′H-spiro[isoxazolo[4,5-g][1,4]oxazino[4,3-a]quinoline-5,5′-pyrimidine]-8-carboxamide] | 2100
8 | C[C@@H]1CN2c3c(cc4c(-c5ncc(C(=O)N(C)C)s5)noc4c3F)CC3(C(=O)NC(=O)NC3=O)[C@H]2[C@H](C)O1 (relative stereo) [Example 87, 2-[(2R,4S,4aS)-rel-11-fluoro-2,4-dimethyl-2′,4′,6′-trioxo-1,1′,2,3′,4,4′,4a,6′-octahydro-2′H,6H-spiro[1,4-oxazino[4,3-a][1,2]oxazolo[4,5-g]quinoline-5,5′-pyrimidin]-8-yl]-N,N-dimethyl-1,3-thiazole-5-carboxamide] | 6700
9 | C[C@@H]1CN2c3c(cc4c(C#N)noc4c3F)CC3(C(=O)NC(=O)NC3=O)[C@H]2[C@H](C)O1 (relative stereo) [Example 183, (2R,4S,4aS)-rel-11-fluoro-2,4-dimethyl-2′,4′,6′-trioxo-1,1′,2,3′,4,4′,4a,6′-octahydro-2′H,6H-spiro[1,4-oxazino[4,3-a][1,2]oxazolo[4,5-g]quinoline-5,5′-pyrimidine]-8-carbonitrile] | 12000
10 | CCN(C)C(=O)c1noc2c(F)c3c(cc12)CC1(C(=O)NC(=O)NC1=O)[C@H]1[C@H](C)O[C@H](C)CN31 (relative stereo) [Example 139, (2R,4S,4aS)-rel-N-ethyl-11-fluoro-N,2,4-trimethyl-2′,4′,6′-trioxo-2,2′,3′,4,4a,4′,6,6′-octahydro-1H,1′H-spiro[isoxazolo[4,5-g][1,4]oxazino[4,3-a]quinoline-5,5′-pyrimidine]-8-carboxamide] | 7600
11 | C[C@@H]1CN2c3c(cc4c(Cn5cncn5)noc4c3F)CC3(C(=O)NC(=O)NC3=O)[C@H]2[C@H](C)O1 (relative stereo) [Example 81, (2R,4S,4aS)-rel-8-((1H-1,2,4-triazol-1-yl)methyl)-11-fluoro-2,4-dimethyl-2,4,4a,6-tetrahydro-1H,1′H-spiro[isoxazolo[4,5-g][1,4]oxazino[4,3-a]quinoline-5,5′-pyrimidine]-2′,4′,6′(3′H)-trione] | 3000
12 | C[C@@H]1CN2c3c(cc4c(-c5cnc(N6CCOCC6)cn5)noc4c3F)CC3(C(=O)NC(=O)NC3=O)[C@H]2[C@H](C)O1 [Example 166(b), (2R,4S,4aS)-11-fluoro-2,4-dimethyl-8-(5-morpholinopyrazin-2-yl)-2,4,4a,6-tetrahydro-1H,1′H-spiro[isoxazolo[4,5-g][1,4]oxazino[4,3-a]quinoline-5,5′-pyrimidine]-2′,4′,6′(3′H)-trione] | 6900
13 | C[C@@H]1CN2c3c(cc4c(-n5cc(I)cn5)noc4c3F)CC3(C(=O)NC(=O)NC3=O)[C@H]2[C@H](C)O1 (racemic) [Example 36, (2R,4S,4 aS)-rel-11-fluoro-8-(4-iodo-1H-pyrazol-1-yl)-2,4-dimethyl-1,2,4,4a-tetrahydro-2′H,6H-spiro[1,4-oxazino[4,3-a][1,2]oxazolo[4,5-g]quinoline-5,5′-pyrimidine]-2′,4′,6′(1′H,3′H)-trione] | 2100
14 | C[C@H]1CN2c3c(cc4c(C(=O)NCC(F)F)noc4c3F)CC3(C(=O)NC(=O)NC3=O)[C@@H]2[C@@H](C)O1 [Example 94(a), (2S,4R,4aR)—N-(2,2-difluoroethyl)-11-fluoro-2,4-dimethyl-2′,4′,6′-trioxo-2,2′,3′,4,4a,4′,6,6′-octahydro-1H,1′H-spiro[isoxazolo[4,5-g][1,4]oxazino[4,3-a]quinoline-5,5′-pyrimidine]-8-carboxamide] | 51000
15 | C[C@@H]1CN2c3c(cc4c(-c5scnc5C#N)noc4c3F)CC3(C(=O)NC(=O)NC3=O)[C@H]2[C@H](C)O1 (relative stereo) [Example 88, 5-[(2R,4S,4aS)-rel-11-fluoro-2,4-dimethyl-2′,4′,6′-trioxo-1,1′,2,3′,4,4′,4a,6′-octahydro-2′H,6H-spiro[1,4-oxazino[4,3-a][1,2]oxazolo[4,5-g]quinoline-5,5′-pyrimidin]-8-yl]-1,3-thiazole-4-carbonitrile] | 1200
16 | C[C@@H]1CN2c3c(cc4c(-c5nccn5C)noc4c3F)CC3(C(=O)NC(=O)NC3=O)[C@@H]2[C@H](C)O1 (relative stereo) [Example 68, (2R,4S,4aR)-rel-11-fluoro-2,4-dimethyl-8-(1-methyl-1H-imidazol-2-yl)-1,2,4,4a-tetrahydro-2′H,6H-spiro[1,4-oxazino[4,3-a][1,2]oxazolo[4,5-g]quinoline-5,5′-pyrimidine]-2′,4′,6′(1′H,3′H)-trione] | 700
17 | C[C@@H]1CN2c3c(cc4c(C(F)(F)F)noc4c3F)CC3(C(=O)NC(=O)NC3=O)[C@H]2[C@H](C)O1 [Example 92(b), (2R,4S,4aS)-11-fluoro-2,4-dimethyl-8-(trifluoromethyl)-2,4,4a,6-tetrahydro-1H,1′H-spiro[isoxazolo[4,5-g][1,4]oxazino[4,3-a]quinoline-5,5′-pyrimidine]-2′,4′,6′(3′H)-trione] | 600
18 | C[C@@H]1CN2c3c(cc4c(NCc5ccccn5)noc4c3F)CC3(C(=O)NC(=O)NC3=O)[C@H]2[C@H](C)O1 (racemic) [Example 14, (2R,4 S,4aS)-rel-11-fluoro-2,4-dimethyl-8-[(pyridin-2-ylmethyl)amino]-1,2,4,4a-tetrahydro-2′H,6H-spiro[1,4-oxazino[4,3-a][1,2]oxazolo[4,5-g]quinoline-5,5′-pyrimidine]-2′,4′,6′(1′H,3′H)-trione] | 2000
19 | CC(C)NC(=O)c1noc2c(F)c3c(cc12)CC1(C(=O)NC(=O)NC1=O)[C@H]1[C@H](C)O[C@H](C)CN31 (relative stereo) [Example 147, (2R,4S,4aS)-rel-11-fluoro-N-isopropyl-2,4-dimethyl-2′,4′,6′-trioxo-2,2′,3′,4,4a,4′,6,6′-octahydro-1H,1′H-spiro[isoxazolo[4,5-g][1,4]oxazino[4,3-a]quinoline-5,5′-pyrimidine]-8-carboxamide] | 3900
20 | C[C@@H]1CN2c3c(cc4c(-c5cn(C)cn5)noc4c3F)CC3(C(=O)NC(=O)NC3=O)[C@H]2[C@H](C)O1 (relative stereo) [Example 69, (2R,4S,4aS)-rel-11-fluoro-2,4-dimethyl-8-(1-methyl-1H-imidazol-4-yl)-1,2,4,4a-tetrahydro-2′H,6H-spiro[1,4-oxazino[4,3-a][1,2]oxazolo[4,5-g]quinoline-5,5′-pyrimidine]-2′,4′,6′(1′H,3′H)-trione] | 17000

— patent US9040528B2, “Chemical compounds 542” (AstraZeneca AB, priority 2008, dated 2015)
